Results on four molecules are retold here after ChEMBL document CHEMBL1155750, “Four new coumarin derivatives from Artemisia keiskeana” (J Nat Prod, 2001).

The nature of series [1]: Toxicity in brine shrimp. Format: organism-based. The note with it: artemia, in vivo.
The next series has as its system Artemia. The series can be described thus: Toxicity in brine shrimp at 100 ug/mL. It counts as organism-based. The note with it: in vivo.

Each structure is given as a SMILES string. Converted amounts (≈) assume the structure as drawn.

For the molecule `COc1cc2ccc(=O)oc2cc1OC/C=C(\C)CC/C=C(\C)CO` [ARTEKEISKEANOL A], in series [1], the LC50 worked out at 60 µg/mL (≈ 174 µM).

With `COc1cc2ccc(=O)oc2cc1OC/C=C(\C)CC/C=C(/C)CO` [ARTEKEISKEANOL B], the LC50 in series [1] turned out to be 70 µg/mL (≈ 203 µM).

Take `COc1cc2ccc(=O)oc2c(OC)c1OC/C=C(\C)CC/C=C(\C)CO` [ARTEKEISKEANOL C]: in the series with Artemia, the Activity entry is “Non-toxic”.

Take `COc1cc2ccc(=O)oc2c(OC)c1OC/C=C(\C)CC/C=C(/C)CO` [ARTEKEISKEANOL D]: the Activity result in the series with Artemia is “Non-toxic”.
